For one compound, Km results are on record in publication PMC12370890 (Nature Communications, 2025).

The assay concerns Tcie612. The experiment in a line: GC-MS of hexane extract, Michaelis-Menten fit. The settings on record: 25 mM MgCl2, 50 mM Tris-HCl pH 7.5, 100 mM KCl, 5 mM DTT, 5 mM hydroxypropyl-β-cyclodextrin, 30 °C, 30 min. Type of assay: biochemical, Trichoderma citrinoviride.

For the compound `CC(C)=CCC/C(C)=C/CC/C(C)=C/CC/C(C)=C/COP(=O)(O)OP(=O)(O)O` [GGPP], the Km came out at 86.1 ± 8.19 µM.
